Measured values as given in patent publication US20190022152A1, “MICROBIOME RESPONSE TO AGENTS” (Yeda Research and Development Co., Ltd., priority 2014, published 2019).
Read-outs that look alike come from different tables or passages of the source.

Test system: fecal microbiota
Details: fecal samples, 11 weeks consumption
Experimental: Illumina sequence reads were mapped to the human microbiome reference genome database of the Human Microbiome Project [www(dot)hmpdacc(dot)org/HMREFG/^32], and to a gut microbial gene catalogue^33 using GEM mapper^58 with the following parameters: • -m 3 -s 0 -q offset-33 -gem-quality-threshold 26
Microbial species abundance was measured as the fraction of reads that mapped to a single species in the database. An EM algorithm adapted from Pathoscope^59 was employed to determine the correct assignment of reads that mapped to more than one species. We considered only species for which at least 10% of the genome was covered (each coverage bin was 10,000-bp long) in at least one of the growth conditions (saccharin, water, or glucose). Reads mapped to the gut microbial gene catalogue were assigned a KEGG^34,35 ID according to the mapping available with the catalogue. Genes were subsequently mapped to KEGG pathways, and only pathways whose gene coverage was above 0.2 were included.

OC[C@H]1OC(O)[C@H](O)[C@@H](O)[C@@H]1O (stereo partly drawn) [Glucose]
Fold change (week 11/week 0) in relative species abundance (Symbol BACT_9, Number 996): 1.24 | Fold change (week 11/week 0) in relative species abundance (Symbol BACT_49, Number 420): 0.15 | Fold change (week 11/week 0) in relative species abundance (Symbol BACT_60, Number 752): 0.88 | Fold change (week 11/week 0) in relative species abundance (Symbol BACT_65, Number 918): 1.20 | Fold change (week 11/week 0) in relative species abundance (Symbol BACT_70, Number 863): 1.58 | Fold change (week 11/week 0) in relative species abundance (Symbol BACT_85, Number 934): 0.91 | Fold change (week 11/week 0) in relative species abundance (Symbol BACT_170, Number 883): 0.93 | Fold change (week 11/week 0) in relative species abundance (Symbol BACT_171, Number 748): 1.24 | Fold change (week 11/week 0) in relative species abundance (Symbol BACT_178, Number 921): 1.53 | Fold change (week 11/week 0) in relative species abundance (Symbol BACT_181, Number 767): 1.14 | Fold change (week 11/week 0) in relative species abundance (Symbol BACT_185, Number 633): 5.63 | Fold change (week 11/week 0) in relative species abundance (Symbol BACT_189, Number 636): 1.66 | Fold change (week 11/week 0) in relative species abundance (Symbol BACT_192, Number 995): 0.86 | Fold change (week 11/week 0) in relative species abundance (Symbol BACT_195, Number 523): 1.15 | Fold change (week 11/week 0) in relative species abundance (Symbol BACT_225, Number 953): 1.18 | Fold change (week 11/week 0) in relative species abundance (Symbol BACT_258, Number 620): 1.13 | Fold change (week 11/week 0) in relative species abundance (Symbol BACT_260, Number 1443): 0.94 | Fold change (week 11/week 0) in relative species abundance (Symbol BACT_300, Number 769): 1.16 | Fold change (week 11/week 0) in relative species abundance (Symbol BACT_413, Number 847): 1.17 | Fold change (week 11/week 0) in relative species abundance (Symbol BACT_419, Number 920): 0.67 | Fold change (week 11/week 0) in relative species abundance (Symbol BACT_420, Number 922): 0.87 | Fold change (week 11/week 0) in relative species abundance (Symbol BACT_424, Number 906): 1.13 | Fold change (week 11/week 0) in relative species abundance (Symbol BACT_449, Number 772): 1.13 | Fold change (week 11/week 0) in relative species abundance (Symbol BACT_463, Number 719): 1.55 | Fold change (week 11/week 0) in relative species abundance (Symbol BACT_496, Number 765): 0.62 | Fold change (week 11/week 0) in relative species abundance (Symbol BACT_499, Number 35): 0.73 | Fold change (week 11/week 0) in relative species abundance (Symbol BACT_511, Number 591): 1.55 | Fold change (week 11/week 0) in relative species abundance (Symbol BACT_535, Number 940): 0.66 | Fold change (week 11/week 0) in relative species abundance (Symbol BACT_539, Number 117): 0.75 | Fold change (week 11/week 0) in relative species abundance (Symbol BACT_551, Number 907): 0.73 | Fold change (week 11/week 0) in relative species abundance (Symbol BACT_572, Number 963): 0.92 | Fold change (week 11/week 0) in relative species abundance (Symbol BACT_627, Number 886): 0.66 | Fold change (week 11/week 0) in relative species abundance (Symbol BACT_681, Number 125): 1.55 | Fold change (week 11/week 0) in relative species abundance (Symbol BACT_722, Number 377): 1.47 | Fold change (week 11/week 0) in relative species abundance (Symbol BACT_843, Number 1318): 0.69 | Fold change (week 11/week 0) in relative species abundance (Symbol BACT_850, Number 394): 1.86 | Fold change (week 11/week 0) in relative species abundance (Symbol BACT_852, Number 766): 0.88 | Fold change (week 11/week 0) in relative species abundance (Symbol BACT_855, Number 835): 1.23 | Fold change (week 11/week 0) in relative species abundance (Symbol BACT_890, Number 163): 0.74 | Fold change (week 11/week 0) in relative species abundance (Symbol BACT_913, Number 904): 1.17 | Fold change (week 11/week 0) in relative species abundance (Symbol BACT_915, Number 1315): 1.23 | Fold change (week 11/week 0) in relative species abundance (Symbol BACT_1001, Number 933): 0.79 | Fold change (week 11/week 0) in relative species abundance (Symbol BACT_1083, Number 1008): 2.25 | Fold change (week 11/week 0) in relative species abundance (Symbol BACT_1131, Number 942): 0.79 | Fold change (week 11/week 0) in relative species abundance (Symbol BACT_1311, Number 1259): 1.16 | Fold change (week 11/week 0) in relative species abundance (Symbol BACT_1321, Number 1255): 1.16 | Fold change (week 11/week 0) in relative species abundance (Symbol BACT_1322, Number 1396): 1.50 | Fold change (week 11/week 0) in relative species abundance (Symbol BACT_1324, Number 1264): 2.61 | Fold change (week 11/week 0) in relative species abundance (Symbol BACT_1348, Number 1311): 1.15 | Fold change (week 11/week 0) in relative species abundance (Symbol BACT_1378, Number 1375): 2.83 | Fold change (week 11/week 0) in relative species abundance (Symbol BACT_1427, Number 1266): 1.13 | Fold change (week 11/week 0) in relative species abundance (Symbol BACT_1442, Number 1400): 1.75 | Fold change (week 11/week 0) in relative species abundance (Symbol BACT_1457, Number 1337): 0.82 | Fold change (week 11/week 0) in relative species abundance (Symbol BACT_1501, Number 1331): 0.79 | Fold change (week 11/week 0) in relative species abundance (Symbol BACT_1526, Number 1227): 1.58 | Fold change (week 11/week 0) in relative species abundance (Symbol BACT_1555, Number 1469): 0.62 | Fold change (week 11/week 0) in relative species abundance (Symbol BACT_1569, Number 1462): 0.78 | Fold change (week 11/week 0) in relative species abundance (Symbol BACT_1595, Number 1533): 1.13 | Fold change (week 11/week 0) in relative species abundance (Symbol BACT_1656, Number 1503): 1.55 | Fold change (week 11/week 0) in relative species abundance (Symbol BACT_3004, Number 5797): 1.54 | Fold change (week 11/week 0) in relative species abundance (Symbol BACT_3005, Number 5799): 1.56 | Fold change (week 11/week 0) in relative species abundance (Symbol BACT_3007, Number 5798): 0.94 | Fold change (week 11/week 0) in relative species abundance (Symbol BACT_3024, Number 5841): 0.72 | Fold change (week 11/week 0) in relative species abundance (Symbol BACT_3045, Number 5818): 1.19 | Fold change (week 11/week 0) in relative species abundance (Symbol BACT_3058, Number 5816): 1.54 | Fold change (week 11/week 0) in relative species abundance (Symbol BACT_3060, Number 5821): 1.62 | Fold change (week 11/week 0) in relative species abundance (Symbol BACT_3062, Number 5800): 1.49 | Fold change (week 11/week 0) in relative species abundance (Symbol BACT_3085, Number 5842): 1.90 | Fold change (week 11/week 0) in relative species abundance (Symbol BACT_4040, Number 5769): 16.24 | Fold change (week 11/week 0) in relative species abundance (Symbol BACT_4042, Number 5770): 0.28 | Fold change (week 11/week 0) in relative species abundance (Symbol EUKY_222, Number 1954): 1.60 | Fold change (week 11/week 0) in relative species abundance (Symbol V1RL3522, Number 3522): 2.13
